The source made the active and inactive calls.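 How the source made its calls: active means AC50 no more than tenfold above the top dose tested, or full inhibition at every dose with a flat fit (cut at about 19 µM in these data); inconclusive means flat curve fit with inhibition between 30% and 70%, or poor fit; inactive means AC50 more than tenfold above the top dose tested.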 Some results are limits rather than exact numbers.

The test system of this assay is HMLE_sh_eGFP viability, CellTiter-Glo luminescence, 72 h. Put plainly: viability loss of HMLE_sh_eGFP cells – cell-based, luminescence, counter-screen for HMLE_sh_ECad selective toxicity project, dose response (AID 463074).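 Further: counterscreen control line to flag general toxicity for the HMLE_sh_ECad screen; potency for loss of viability as luminescence drops below DMSO wells.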
What is called AC50 is the concentration at which the activity in the assay is half-maximal. Regarding `O=c1cc(CNc2cc(C(F)(F)F)cc(C(F)(F)F)c2)nc2sccn12`, the AC50 is 3.39 µM.

`CC(=O)Nc1ccc(-c2csc(NC(=O)Cc3ccccc3F)n2)cc1`: the AC50 is 11.5 µM. With `O=S(=O)(Nc1ccc(-n2cccc2)cc1)c1ccc(Cl)c(Cl)c1`, the AC50 is 5.21 µM. As to `COc1ccc(C(=O)NC(=S)Nc2ccccc2N2CCCCC2)cc1[N+](=O)[O-]`, the half-maximal activity concentration (AC50) is 0.574 µM. To `O=[N+]([O-])c1cc(C(F)(F)F)ccc1NCCNC(=S)Nc1ccc(Cl)cc1` belongs 5.24 µM. Regarding `S=c1[nH]nc(C2CCCCC2)n1/N=C/C(Cl)=C\c1ccccc1`, the AC50 was 8.35 µM. To `CCc1cc2cc(C)cc(C)c2nc1SCC(=O)N1CCN(C(=O)c2ccco2)CC1` belongs 13.4 µM. To `O=C(Nc1ccc(O)c(-c2nc3ccccc3o2)c1)C1(c2ccc(Br)cc2)CCCC1` belongs > 19.5 µM (inactive); to `CC(C)c1ccc(-c2cc(C(=O)N3N=C(C(F)F)CC3(O)C(F)F)c3ccccc3n2)cc1` (centres undefined), 6.3 µM; to `CC(Nc1nc(-c2ccccc2)nc2ccccc12)c1ccccc1` (centres undefined), 5.38 µM. The same measure for `Cc1ccc(NS(=O)(=O)c2cc3c4c(cccc4c2)C(=O)NC3=O)cc1C`: 6.49 µM. Take `Clc1ccc(-c2nnc(-c3ccccc3)c(-c3ccccc3)n2)cc1`: the AC50 is 3.69 µM. `CCCOC(=O)c1ccc(Oc2c(-c3ccc(OCC)cc3O)n[nH]c2C)cc1`: the AC50 was 4.06 µM. For `COc1ccc(C)cc1Nc1n[n+](-c2ccccc2)c(-c2c(OC)ccc3ccccc23)s1`, the AC50 is 6.93 µM. In the case of `O=C(Oc1ccc(Br)cc1C(=O)/C=C/c1ccccc1F)c1ccco1`, the AC50 is 4.19 µM.

In the case of `COC(=O)c1c(NC(=O)c2ccc(C)c(S(=O)(=O)Nc3ccccc3C)c2)sc2c1CCCC2`, the AC50 was 1.31 µM. Regarding `CCC1=NN(C(=O)c2cccc(Br)c2)C(O)(c2ccc(Br)cc2)C1` (centres undefined), the AC50 was 1.37 µM. To `CC1CCCCN1c1cc(C#N)c(C#N)cc1[N+](=O)[O-]` (centres undefined) belongs 1.77 µM; to `Cc1cc(NC(=O)c2cc(-c3ccncc3)nc3ccccc23)ccc1Br`, 6.77 µM; to `CCCOc1ccccc1-n1sc2c(c1=S)-c1cc(OC)cc3c1N(C(=O)C3=O)C2(C)C`, 9.1 µM. In the case of `COc1ccc(-c2c(C#N)c(SCC(=O)c3cc4ccccc4oc3=O)nc(C)c2C(=O)Nc2ccccc2)cc1`, the AC50 is 1.5 µM. In the case of `C(=N\Nc1ncnc2sc3c(c12)CCC3)/c1cccs1`, the AC50 is 7.4 µM. To `COc1cccc(C2C3=C(N=c4s/c(=C\c5cccc(O)c5)c(=O)n42)c2ccccc2CC3)c1OC` (centres undefined) belongs 8.57 µM; to `O=Cc1cc2ccccc2nc1SCc1ccc(Cl)c(Cl)c1`, 6.37 µM; to `Cc1ccsc1/C=N/NC(=O)c1cc(-c2ccncc2)nc2ccccc12`, 0.257 µM.

Take `CCC(C)n1c(-c2cccs2)nc2nc3ccccc3nc21` (centres undefined): the AC50 was 15.5 µM. The same measure for `COc1ccc(N/N=C/c2c(O)n(-c3ccc(C)c(C)c3)c(=O)[nH]c2=O)cc1`: 1.12 µM. Consider `CSc1nc(C)cc(OCC(=O)N/N=C/c2ccccc2O)n1`, for which the AC50 was 11 µM.

Regarding `Cc1ccc(Nc2nc(N)c([N+](=O)[O-])c(NCc3ccco3)n2)cc1C`, the AC50 is 7.19 µM.

Regarding `O=C(/C=C/c1ccc2c(c1)OCCCO2)c1ccc2ccccc2c1O`, the AC50 was 12 µM. For `COc1ccc(-c2cn[nH]c2-c2ccc(OCc3ccccc3)cc2O)cc1`, the AC50 was 7.02 µM. Consider `COc1ccc(-c2csc(NC(=S)NC(=O)/C=C/c3ccco3)n2)cc1OC`, for which the AC50 is 3.72 µM.

With `Cn1c(-c2ccccc2)cnc1NCc1ccc(-c2ccccc2)cc1`, the AC50 is 0.683 µM. The same measure for `CCOC(=O)C(=O)NNc1ccc(F)cc1`: 1.45 µM; for `CCN1CCN(Cc2ccc(OCc3ccccc3)cc2)CC1`: 4.38 µM; for `COc1ccc(-c2[nH]ncc2N=Nc2ccccc2)cc1`: 7.66 µM.

Consider `CCCOc1ccc(/C=N/Nc2cccc([N+](=O)[O-])c2)c(O)c1`, for which the AC50 is 3.42 µM.

For `Cc1ccc(Sc2c([N+](=O)[O-])c(=O)n(C)c3ccccc23)cc1`, the AC50 was 7.05 µM. As for `O=S(=O)(Nc1nc2ccccc2nc1N1CCN(c2ccccc2F)CC1)c1ccc(Cl)cc1`, the AC50 is 5.8 µM. The same measure for `Oc1ccc(Nc2nc(-c3ccccc3O)nc3ccccc23)cc1`: 4.27 µM; for `C[C@@H]1O[C@@H](O[C@@H]2C=C3CC[C@@H]4C(CC[C@]5(C)[C@@H](c6ccc(=O)oc6)CC[C@]45O)[C@@]3(C)CC2)[C@H](O)[C@H](O)[C@H]1O` (some centres undefined): below 0.16 µM; for `Cc1cc(SCC(=O)N/N=C/c2ccc(O)cc2O)c(C)cc1Br`: 4.42 µM.

On to `COC(=O)c1c(-c2ccc(N(C)C)cc2)sc2ccc(OC)cc12`, for which the AC50 was > 19.5 µM (inactive). For the compound `COc1cccc(C(=O)Nc2ccc(C3CC3(Cl)Cl)cc2)c1` (centres undefined), the AC50 is 16.4 µM. The same measure for `CN1CCN(c2ccccc2NC(=O)c2ccc(-c3ccc(Cl)cc3Cl)o2)CC1`: 6.57 µM. The same measure for `COc1ccc(/C=C/C(=O)Nc2ccc(C34CC5CC(CC(O)(C5)C3)C4)cc2)cc1OC`: 0.631 µM; for `N#C/C(=C/c1cn(-c2ccccc2)nc1-c1cccc(OCc2ccc(F)cc2)c1)C(=O)NCCCn1ccnc1`: 3.4 µM. For the compound `CCn1c2ccccc2c2cc(NS(=O)(=O)c3ccc(C)cc3)ccc21`, the AC50 was 4.53 µM. As for `Cc1sc2nc(SCCN(C)C)n(-c3ccccc3)c(=O)c2c1-c1ccc(F)cc1`, the AC50 was 10.2 µM.

`Cc1cc(C)c2[nH]c(=O)c(CN(Cc3cccs3)C(=S)NCc3ccco3)cc2c1`: the AC50 was > 19.5 µM (inactive). To `NC(=O)CC(NC(=O)Cc1ccc(Br)cc1)c1ccc(N2CCN(c3ccccc3)CC2)c([N+](=O)[O-])c1` (centres undefined) belongs 17.6 µM; to `CC(=O)Nc1ccc(NC(=O)CSc2ncc(C(=O)Nc3ccccc3)c(=O)n2C)cc1`, 5.44 µM. The same measure for `CC(=O)NC(c1cc(Cl)c2cccnc2c1O)C1CC1` (centres undefined): 9.04 µM; for `CCN(CC)S(=O)(=O)c1cccc(C(=O)N/N=C/c2cccc(O)c2O)c1`: 7.97 µM; for `Cc1ccc(-c2nnc(N3CCC(C)CC3)c3ccccc23)cc1C`: 4.3 µM. Consider `C/C(=N\Nc1ccccc1)c1c(O)n(Cc2ccccc2)c(=O)[nH]c1=O`, for which the AC50 is 1.9 µM. The same measure for `COC(=O)c1ccc(/C=C/c2c(-c3ccc(OC)cc3)oc3ccc(N4CCOCC4)cc23)cc1`: 4.19 µM; for `O=C(/C=C/c1ccc2c(c1)OCO2)Nc1nc(-c2ccccc2)cs1`: 0.781 µM; for `COC(=O)C(Cc1ccc(N(CCCl)CCCl)cc1)N=Cc1ccccc1O` (centres undefined): 2.54 µM. To `COc1cc(CNCCc2c[nH]c3ccccc23)ccc1OCc1ccccc1F` belongs 3.64 µM; to `O=C(Nc1ccc(Cl)cc1)Nc1nnc(-c2ccncc2)s1`, 2.42 µM. For `O=C(N[C@H]1C/C=C\C[C@@H](CC(=O)N(CCO)Cc2ccccc2)C(=O)NC[C@H](c2ccccc2)OC1=O)OCC1c2ccccc2-c2ccccc21`, the AC50 was 2.41 µM. On to `O=C1/C(=C\c2cc(Br)cc(Br)c2O)SC(=S)N1Cc1ccccc1`, for which the AC50 is 0.906 µM. For `NC(=O)CC(NC(=O)Cc1ccc(Br)cc1)c1ccc(NCc2cc(F)ccc2F)c([N+](=O)[O-])c1` (centres undefined), the AC50 is 3.36 µM.

Consider `COc1ccc(Br)cc1C(=O)NC(=S)Nc1cc(-c2nc3ccccc3[nH]2)ccc1C`, for which the AC50 is > 19.5 µM (inactive). The same measure for `COc1ccc(Nc2nc(-c3ccccc3O)nc3ccccc23)cc1`: 4.79 µM; for `Clc1ccc(Cl)c(OCCCCN2CCNCC2)c1`: 9.58 µM; for `COc1ccc(-c2oc3ccc(N4CCOCC4)cc3c2C#CCO)cc1`: 10.4 µM. Take `C[C@@H]1CC[C@H]2C(=O)N3[C@@H](CC[C@@H](C)[C@@H]3c3ccc(Br)cc3)C(=O)N2[C@H]1c1ccc(Br)cc1`: the half-maximal activity concentration (AC50) is 4.41 µM. As to `O=S(=O)(NC1CC(NS(=O)(=O)OCC(Cl)(Cl)Cl)C2CCCCC12)OCC(Cl)(Cl)Cl` (centres undefined), the AC50 was 1.47 µM. As for `CCCCCCc1cc2cc(-c3nnc(-c4cc(OC)c(OC)c(OC)c4)o3)c(=O)oc2cc1O`, the AC50 is 5.89 µM. To `Cn1c(/C(C#N)=C(\O)COc2ccc3ccccc3c2)nc2ccccc21` belongs 0.359 µM.

In the case of `COc1ccc(/C=C/C(=O)c2ccc(O)cc2)cc1COc1ccc(F)cc1`, the AC50 is 4.37 µM.

Regarding `CCOc1cc(/C=C\c2[nH]c(=O)[nH]c(=O)c2[N+](=O)[O-])ccc1OC(C)CC` (centres undefined), the AC50 was 8.32 µM. To `CN(/N=C/c1cc(Br)cc(Br)c1O)c1cccc(C(F)(F)F)n1` belongs 12.7 µM; to `NC(=O)CC(NC(=O)c1ccc(Br)cc1)c1ccc(N2CCCCCC2)c([N+](=O)[O-])c1` (centres undefined), 19.6 µM; to `C[C@@H]1CN([C@H](C)CO)C(=O)Cc2cc(NS(=O)(=O)c3ccc(Cl)cc3)ccc2O[C@H]1CN(C)Cc1ccc(C(F)(F)F)cc1`, 3.18 µM. On to `CC(NC(=O)c1ccc(N2CCNCC2)c([N+](=O)[O-])c1)C12CC3CC(CC(C3)C1)C2` (centres undefined), for which the AC50 is 6.64 µM. Turning to `O=C(Nc1ccc(Cl)cc1)c1nc[nH]c1C(=O)NCCN(CCNC(=O)c1[nH]cnc1C(=O)Nc1ccc(Cl)cc1)CCNC(=O)c1[nH]cnc1C(=O)Nc1ccc(Cl)cc1`, the AC50 was 4.36 µM. Take `CC(=O)Oc1ccc(C(=O)Nc2ccc(C3(C#N)CCCC3)cc2)cc1`: the AC50 is 8.24 µM. Regarding `CN(C)c1ccc(-n2cccc2/C=C/[N+](=O)[O-])cc1`, the AC50 was 3.63 µM.

With `CC(C)(C)c1nn(-c2ccccc2)c2[nH]c(=O)c(C=O)cc12`, the AC50 was 8.18 µM. The same measure for `COc1ccc(OC)c(NC(=O)c2nnn(Cc3ccccc3C)c2N)c1`: 3.61 µM; for `CN(C)N1C(N)=C(C#N)C(c2cccc3ccccc23)C2=C1CC(c1ccccc1)CC2=O` (centres undefined): 1.02 µM; for `O=C1CC(c2ccc(F)cc2)CC2=C1C=Nc1ccccc1N2` (centres undefined): > 19.5 µM (inactive).

Consider `COc1cccc(-c2sc3ccc(OC)cc3c2-c2ccc(O)cc2)c1`, for which the AC50 is 3.7 µM. To `CC(C)N(C(=O)CSc1nc2ccccc2n1-c1ccccc1)C(C)C` belongs 7.62 µM; to `C[C@@H]1CC[C@]2(C(=O)O)CC[C@]3(C)C(=CCC4[C@]56CC[C@@](O)(OC5)C(C)(C)C6CC[C@]43C)C2[C@H]1C` (some centres undefined), 6.19 µM; to `Cc1c(CCOC(=O)CC23CC4CC(CC(C4)C2)C3)sc[n+]1CC(=O)c1ccc(Br)cc1`, 2.6 µM.

The values above are taken from PubChem BioAssay AID463074 (Broad Institute, 2010).
